Data set [1] deals with T1, serotonin 5-HT7 receptor (5-HT7A) (Homo sapiens, UniProt P34969).
T1 construct: expressed in transfected cells
As to the kind of experiment: 5-HT7 receptor radioligand competition binding ([3H]-SB269970). The conditions noted are these: human cloned 5-HT7A receptor, HEK293 membranes, 2 nM [3H]-SB269970; ± S.E.M., n = 3 in duplicate; read-out: Affinity Ki 5-HT7. On the procedure:
(§1) As a first step, competition radioligand binding assays were carried out for all the compounds at the single concentration of 10 µM, on membrane preparations from stable cell lines heterologously expressing the human cloned 5-HT1A, 5-HT2A, or 5-HT7 receptors. […] For the affinity determination at dopamine receptor subtypes, membrane fractions of human dopamine D2s, D3, D1, and D5 receptor-expressing cells were used. They were co-incubated with [^3H]spiperone (for D2s and D3 receptor) or [^3H]SCH23390 (for D1 and D5 receptor) and appropriate concentrations of test compound for 120 min. Bound radioligand was separated from the free ligand using filtration. Radioactivity was measured by liquid scintillation counting.
The affinity of the compounds for serotonin 5-HT7 receptor was evaluated in membrane preparations from HEK293 cells stably expressing the human cloned 5-HT7A receptor, following previously described procedures with minor modifications. Competition binding experiments were performed using 2 nM [^3H]-SB269970 (34.5 Ci/mmol, 0.25 mCi/mL, Perkin Elmer NET1198U250UC) as radioligand. […] Methiothepine was included in the assays as reference compound. Assays were carried out in duplicate in 96-well assay plates, in assay buffer (50 mM Tris-HCl, 4 mM MgCl2, 1 mM ascorbic acid, 0.1 mM pargyline, pH = 7.4). Assay mixtures were incubated at 37 °C for 60 min, followed by filtration through GF/C glass filter plates, and washing with ice-cold assay buffer. Affinity (equilibrium dissociation constant, Ki) of the compounds was calculated from competition binding curves as indicated above.
For orientation: Displacement assays read how much labelled ligand stays bound in the presence of the test substance.

The nature of data set [2]: Cytotoxicity in SH-SY5Y cells (MTT assay). The class given is cell-based, human. The conditions noted are these: human, SH-SY5Y neuroblastoma cells, MTT, 0.1 to 100 μM, ± S.E.M. As for the experimental part: Initially, the cytotoxicity of the target compounds was assessed by treating SH-SY5Y cells for 48 h with various concentrations of compounds (0.1 to 100 μM).
SH-SY5Y neuroblastoma cells (cat. CRL-2266, ATCC) were cultured in a 1:1 mixture of Eagle’s Minimum Essential Medium (cat. 15-010-CVR, Corning) and Ham’s F12 medium (cat. 10-080-CVR, Corning). This medium was supplemented with 10% (v/v) Fetal Bovine Serum (cat. 35-079-CV, Corning), 1% (v/v) Glutamine (cat. ECB3000D, Euro Clone) and 1% (v/v) Penicillin—Streptomycin (cat.30-002-CI, Corning). Cells were cultivated at 37 °C with 5% CO2 at saturated humidity.
Determination of cell growth was performed using the MTT assay at 48 h. On day 1, 25,000 cells/well were seeded into 96-well plates in a volume of 100 μL. On day 2, the various drug concentrations ([…]–100 μM) were added. In all the experiments, the various drug-solvents (EtOH, DMSO) were added in each control to evaluate possible solvent cytotoxicity. After the established incubation time with drugs (48 h), MTT (0.5 mg/mL) was added to each well, and after 3–4 h incubation at 37 °C, the supernatant was removed. The formazan crystals were solubilized using 100 μL of DMSO/EtOH (1:1, v/v) and the absorbance values at 570 and 630 nm were determined on the microplate reader Victor 3 (PerkinElmer Life Sciences, Waltham, MA, USA).

Data set [3] deals with T2, serotonin 5-HT1A receptor (Homo sapiens, UniProt P08908).
T2 construct: expressed in transfected cells
T2 sequence (P08908 1-422): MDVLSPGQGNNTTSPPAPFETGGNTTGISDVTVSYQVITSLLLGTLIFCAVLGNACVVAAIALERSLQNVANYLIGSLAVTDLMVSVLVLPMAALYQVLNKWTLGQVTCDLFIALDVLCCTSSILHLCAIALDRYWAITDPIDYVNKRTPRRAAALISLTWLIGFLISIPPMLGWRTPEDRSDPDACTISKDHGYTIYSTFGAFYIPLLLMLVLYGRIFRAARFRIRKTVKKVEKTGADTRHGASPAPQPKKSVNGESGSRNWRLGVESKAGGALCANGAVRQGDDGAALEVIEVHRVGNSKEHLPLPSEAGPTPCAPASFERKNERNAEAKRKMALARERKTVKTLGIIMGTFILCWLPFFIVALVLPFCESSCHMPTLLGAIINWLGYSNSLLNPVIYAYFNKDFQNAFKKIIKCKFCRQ
As to the kind of experiment: 5-HT1A receptor radioligand competition binding ([3H]-8-Hydroxy-DPAT). Particulars: for Ki: human cloned receptor, HEK293 membranes, 1 nM [3H]-8-Hydroxy-DPAT, ± S.E.M., n = 3 in duplicate, read-out: Affinity Ki 5-HT1A; for Ki ratio of the trimethylene and tetramethylene homologs at 5-HT1A: Ki of a (trimethylene) / Ki of b (tetramethylene) homolog, given as a/b. On the procedure:
as §1
The affinity of the compounds for serotonin 5-HT1A receptor was evaluated in membrane preparations from HEK293 cells stably expressing the human cloned receptor, following previously described procedures with minor modifications. Competition binding experiments were performed using 1 nM [^3H]-8-Hydroxy-DPAT (1 mCi/mL, PerkinElmer NET929250UC) as radioligand. Nonspecific binding was assessed in the presence of 10 µM serotonin. […] Assays were carried out in duplicate in 96-well assay plates, in assay buffer (50 mM Tris-HCl, 5 mM MgSO4, pH = 7.4). Assay mixtures were incubated at 37 °C for 120 min, followed by filtration through GF/C glass filter plates, and washed with ice-cold wash buffer (50 mM Tris-HCl, pH = 7.4).

The target of data set [4] is dopamine D3 receptor (Homo sapiens, UniProt P35462). The experiment in a line: Dopamine D3 receptor competition binding ([3H]spiperone).
Sequence of dopamine D3 receptor (P35462 whole entry): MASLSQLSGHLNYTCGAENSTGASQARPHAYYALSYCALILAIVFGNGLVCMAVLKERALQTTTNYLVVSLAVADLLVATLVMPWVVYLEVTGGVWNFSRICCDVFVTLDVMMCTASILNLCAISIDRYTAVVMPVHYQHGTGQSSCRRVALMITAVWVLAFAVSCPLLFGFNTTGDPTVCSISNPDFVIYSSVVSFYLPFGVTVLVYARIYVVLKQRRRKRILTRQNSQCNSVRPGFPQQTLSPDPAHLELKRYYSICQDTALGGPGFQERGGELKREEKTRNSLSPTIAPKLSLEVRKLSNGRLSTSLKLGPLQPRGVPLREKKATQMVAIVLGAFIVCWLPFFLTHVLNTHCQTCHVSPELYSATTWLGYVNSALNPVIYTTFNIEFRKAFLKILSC
Experimental: Competition binding experiments at dopamine D2s and D3 receptor were performed to determine the affinity of the compounds. […] Membrane preparations of transfected CHO-K1 cells stably expressing the human D2s or D3 receptor were performed according to Bautista-Aguilera et al. [26]. The competition binding experiments were conducted as previously reported [26, 27]. Briefly, membrane fractions (D2sR: 25 µg/200 µL; D3R: 20 µg/200 µL) were incubated with [^3H]spiperone (0.2 nM) and test compound for 120 min at room temperature. […] Non-specific binding was determined in the presence of 10 µM haloperidol. Haloperidol was also used as reference compound. Separation of the bound ligand from the free ligand was conducted by filtration through GF/B filters using deionized water.
Data of at least three independent experiments in triplicate were analyzed using GraphPad Prism 8.1 (San Diego, CA, USA). Binding curves were fitted to a non-linear regression model (one-site competition). Ki values were calculated from IC50 values using the Cheng–Prusoff equation. The statistical calculations were performed on –log(Ki).

Where “and” joins values, the source holds several entries; their conditions need not be identical. Equal values may be shown once.

T1 sequence (P34969 1-445 isoform P34969-2): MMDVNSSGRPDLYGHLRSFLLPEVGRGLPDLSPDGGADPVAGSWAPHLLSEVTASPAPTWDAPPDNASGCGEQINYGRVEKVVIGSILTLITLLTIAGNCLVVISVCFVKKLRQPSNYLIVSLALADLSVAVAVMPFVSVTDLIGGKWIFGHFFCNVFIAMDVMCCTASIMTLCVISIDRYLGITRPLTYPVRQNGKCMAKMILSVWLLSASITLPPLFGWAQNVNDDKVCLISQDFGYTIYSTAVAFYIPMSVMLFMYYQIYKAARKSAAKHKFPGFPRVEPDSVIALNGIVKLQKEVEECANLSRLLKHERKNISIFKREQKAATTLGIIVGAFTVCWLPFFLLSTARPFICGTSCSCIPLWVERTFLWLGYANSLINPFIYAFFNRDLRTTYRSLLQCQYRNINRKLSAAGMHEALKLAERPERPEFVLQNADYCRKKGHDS

By Ki is commonly meant the equilibrium dissociation constant of an inhibitor or competing ligand from its target. A word on the EC50: it is the concentration giving half of the maximal effect. A lower EC50 goes with an effect from little substance. Regarding `Cc1cc(=O)oc2cc(OCCCCN3CCN(c4ncccc4-c4ccncc4)CC3)ccc12` [Compound 12b, 7-(4-(4-([3,4’-Bipyridin]-2-yl)piperazin-1-yl)butoxy)-4-methyl-2H-chromen-2-one], the Ki in data set [1] is 0.0522 ± 0.0106 µM; in data set [3] it was < 0.0176 µM and 0.0113 µM; in data set [4], 0.424 µM. Further, a half-maximal effect in data set [2] (EC50 at 48 h) was put at 47.9 ± 3.5 µM.

For `CC1Oc2ccc(OCCCN3CCN(c4ncccc4-c4ccncc4)CC3)cc2NC1=O` (stereo not drawn) [Compound 8a, 6-(3-(4-([3,4’-Bipyridin]-2-yl)piperazin-1-yl)propoxy)-2-methyl-2H-benzo[b][1,4]oxazin-3(4H)-one], the inhibition constant (Ki) was 0.0107 ± 0.0007 µM in data set [1]; < 0.0176 µM and 0.0131 µM in data set [3]; 1.22 µM in data set [4]. The molecule also registered an EC50 at 48 h in data set [2] of 32.9 ± 3.5 µM. Moreover, the “Ki ratio of the trimethylene and tetramethylene homologs at 5-HT1A” value in data set [3] amounted to 0.7.

Consider `CC1Oc2ccc(OCCCCN3CCN(c4ncccc4-c4ccncc4)CC3)cc2NC1=O` (stereo not drawn) [Compound 8b, 6-(4-(4-([3,4’-Bipyridin]-2-yl)piperazin-1-yl)butoxy)-2-methyl-2H-benzo[b][1,4]oxazin-3(4H)-one], for which the Ki in data set [1] was 0.00938 ± 0.00042 µM; in data set [3] it was < 0.0176 µM and 0.0176 µM; in data set [4] it was 0.691 µM. The molecule also gave an EC50 at 48 h in data set [2] of 25.5 ± 2.2 µM.

`Cn1c(=O)cnn(CCCCN2CCN(c3ncccc3-c3ccncc3)CC2)c1=O` [Compound 11b, 2-(4-(4-([3,4’-Bipyridin]-2-yl)piperazin-1-yl)butyl)-4-methyl-1,2,4-triazine-3,5(2H,4H)-dione]: the Ki in data set [1] was 0.0794 ± 0.009 µM; in data set [3], < 0.0176 µM and 0.00519 µM; in data set [4], more than 10 µM. Further, in data set [2], the EC50 at 48 h was more than 100 µM.

In the case of `Cn1c(=O)cnn(CCCCN2CCN(c3ccc(F)cc3-c3ccc(C#N)cc3)CC2)c1=O` [Compound 10b, 5’-Fluoro-2’-(4-(4-(4-methyl-3,5-dioxo-4,5-dihydro-1,2,4-triazin-2(3H)-yl)butyl)piperazin-1-yl)-[1,1’-biphenyl]-4-carbonitrile], the Ki in data set [1] was 0.0365 ± 0.0052 µM; in data set [3], 0.0434 ± 0.0062 µM; in data set [4] it was more than 10 µM. Also, the EC50 at 48 h in data set [2] was 34.3 ± 2.5 µM.

Turning to `Cn1c(=O)cnn(CCCN2CCN(c3ccc(F)cc3-c3ccc(C#N)cc3)CC2)c1=O` [Compound 10a, 5’-Fluoro-2’-(4-(3-(4-methyl-3,5-dioxo-4,5-dihydro-1,2,4-triazin-2(3H)-yl)propyl)piperazin-1-yl)-[1,1’-biphenyl]-4-carbonitrile], the inhibition constant Ki in data set [1] is 0.0457 ± 0.0013 µM; in data set [3], 1.09 ± 0.154 µM; in data set [4], more than 10 µM. This molecule also had an EC50 at 48 h in data set [2] of 28.2 ± 3.2 µM.

Take `Cn1c(=O)cnn(CCCN2CCN(c3ncccc3-c3ccncc3)CC2)c1=O` [Compound 11a, 2-(3-(4-([3,4’-Bipyridin]-2-yl)piperazin-1-yl)propyl)-4-methyl-1,2,4-triazine-3,5(2H,4H)-dione]: the Ki in data set [1] is 0.0445 ± 0.0022 µM; in data set [3], 0.269 ± 0.018 µM; in data set [4], more than 10 µM. In data set [2], the concentration giving a half-maximal response (EC50) at 48 h is more than 100 µM. Further, the “Ki ratio of the trimethylene and tetramethylene homologs at 5-HT1A” value in data set [3] came to 52.

As to `COc1ccc(-c2cc(F)ccc2N2CCN(CCCCn3ncc(=O)n(C)c3=O)CC2)cc1` [Compound 9b, 2-(4-(4-(5-Fluoro-4’-methoxy-[1,1’-biphenyl]-2-yl)piperazin-1-yl)butyl)-4-methyl-1,2,4-triazine-3,5(2H,4H)-dione], the values for the Ki in data set [1], in data set [3] and in data set [4] were 0.045 ± 0.0034 µM, 0.0239 ± 0.0049 µM and more than 10 µM, respectively. Further, the midpoint of the response in data set [2], the EC50 at 48 h, lay at 51.9 ± 4.3 µM.

Consider `Cc1cc(=O)oc2cc(OCCCN3CCN(c4ncccc4-c4ccncc4)CC3)ccc12` [Compound 12a, 7-(3-(4-([3,4’-Bipyridin]-2-yl)piperazin-1-yl)propoxy)-4-methyl-2H-chromen-2-one], for which the Ki in data set [1] is 0.0425 ± 0.0062 µM; in data set [3] it was 0.0415 ± 0.003 µM; in data set [4], 1.07 µM. In data set [2], this molecule yielded a concentration for a half-maximal effect (EC50) at 48 h of 35.2 ± 4.1 µM. In addition, in data set [3], the “Ki ratio of the trimethylene and tetramethylene homologs at 5-HT1A” value is recorded as 3.7.

(Values after publication PMC8877291, “Design and Synthesis of Arylpiperazine Serotonergic/Dopaminergic Ligands with Neuroprotective Properties” (Molecules, 2022).)
